The source of these data is US5466809A (Toronto Research Chemicals, Inc., priority 1994, dated 1995).

The structures appear in SMILES notation. In brackets after ≈: the same amount, converted by molar mass.

Assay [1] relates to N-linked oligosaccharide processing. Briefly: L-PHA lectin sensitivity assay for inhibition of N-linked oligosaccharide processing. The assay is classed as cell-based. The note with it: L-PHA assay; 3H-thymidine incorporation; read-out: D50 Values (Inhibition), L-PHA assay. As to the method:
This test also indicates whether the compounds enter tumor cells and measures the degree of toxicity of the compounds for cells. The test is described in J. W. Dennis, Cancer Research 46:5131, 1986.
Essentially, 2×10^4 cells are placed in individual wells of a 96-well microtest plate, wherein the wells contain serial dilutions of the compounds to be tested. […] […] The cells are then harvested and the amount of radioactivity incorporated into the host cell DNA is measured in a liquid scintillation counter. The amount of radioactivity present in cells in wells in the absence of L-PHA reflects the toxicity of the test compound and the amount of radioactivity present in the presence of L-PHA reflects the level of inhibition of oligosaccharide processing induced by the test compound.

The target of assay [2] is T1, Jack Bean alpha-mannosidase (Canavalia ensiformis, UniProt C0HJB3).
T1 sequence (C0HJB3 1-981): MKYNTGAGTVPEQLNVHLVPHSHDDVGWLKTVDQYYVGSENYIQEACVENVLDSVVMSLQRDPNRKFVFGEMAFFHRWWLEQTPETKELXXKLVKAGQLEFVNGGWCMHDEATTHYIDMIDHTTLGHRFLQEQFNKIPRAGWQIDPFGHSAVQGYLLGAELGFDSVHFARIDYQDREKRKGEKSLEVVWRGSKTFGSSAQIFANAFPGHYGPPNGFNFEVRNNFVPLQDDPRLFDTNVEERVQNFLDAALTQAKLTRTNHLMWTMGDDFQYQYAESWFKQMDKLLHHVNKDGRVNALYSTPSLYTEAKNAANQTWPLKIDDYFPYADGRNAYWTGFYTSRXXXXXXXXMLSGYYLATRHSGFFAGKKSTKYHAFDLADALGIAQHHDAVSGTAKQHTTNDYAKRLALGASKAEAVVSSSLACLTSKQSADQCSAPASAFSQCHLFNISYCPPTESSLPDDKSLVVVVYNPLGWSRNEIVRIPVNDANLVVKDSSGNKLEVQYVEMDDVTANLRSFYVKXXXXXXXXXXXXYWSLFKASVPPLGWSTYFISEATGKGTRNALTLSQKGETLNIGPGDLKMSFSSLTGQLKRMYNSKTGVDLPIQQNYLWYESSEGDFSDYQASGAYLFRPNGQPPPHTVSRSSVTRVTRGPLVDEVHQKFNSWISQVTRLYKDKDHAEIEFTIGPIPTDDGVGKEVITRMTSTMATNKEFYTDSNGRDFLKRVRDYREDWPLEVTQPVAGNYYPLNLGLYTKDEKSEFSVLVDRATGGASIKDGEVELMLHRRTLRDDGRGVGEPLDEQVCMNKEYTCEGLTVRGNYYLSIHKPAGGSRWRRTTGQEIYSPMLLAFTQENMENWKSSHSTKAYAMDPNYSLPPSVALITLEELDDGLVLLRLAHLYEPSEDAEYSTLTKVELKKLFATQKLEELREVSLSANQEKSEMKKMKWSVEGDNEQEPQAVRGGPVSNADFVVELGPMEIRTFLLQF
Briefly: Jack Bean alpha-mannosidase assay. Conditions: pH 6.0, 37° C., 30 minutes, p-nitrophenyl-alpha-D-mannopyranoside substrate; read-out: D50 Values (Inhibition), J.B. mannosidase (converted). It is filed as biochemical. As for the experimental part: Jack Bean alpha-Mannosidase Assay. […] A volume (37.5 ul) of 0.05M sodium acetate (pH 6.0) was added to each well, followed by 37.5 ul of 0.01M p-nitrophenyl-alpha-D-mannopyanoside, and then 10 ul of a 1:400 dilution of Jack Bean alpha-mannosidase. After thoroughly shaking to mix, the mixture was incubated at 37° C. for 30 minutes. The reaction was stopped by the addition of 150 ul of 0.5M sodium carbonate (pH 10.0). The absorbance at 405 nm of the solution in the wells was determined in an ELISA plate reader.

Assay [3] relates to bone marrow cells. Briefly: In vivo bone marrow CFU formation and bone marrow cellularity, dose dependent effect. On the set-up: species or system C57BL/6 mice. Conditions: for Mean of CFU Formation / Mean of Cellularity: Expt. 1, 4 days. An excerpt:
(§1) Assay for Bone Marrow Cell Proliferation Induced by Swansonine Analogues. Pathogen-free C57BL/6 mice at 8-14 weeks of age were quarantined for one week prior to their use in the experiments described below. Mice were inoculated intraperitoneally twice daily with a designated dose of swainsonine or an analogue of swainsonine for a period of four days. Eighteen hours following the last injection, the mice were sacrificed, bone marrow cells were obtained using standard technology (S. C. White et al., J. Natl. Cancer Inst. 83 1125, 1991). Cellularity of the bone marrow cells so obtained was determined by directly counting the cells after they were flushed from the femurs and tibia of the mice. The cells were processed according to the procedure described in the GIBCO-BRL Mouse Bone Stem Cell Proliferation Kit, and the number of colony forming units (CFU) was assessed using the procedures also described in the kit. For kinetic experiments, mice were administered 10 ug of the analogue (this was the optimum dose in all cases) twice daily for the designated number of days. The experiments were designed so that all regimens terminated on the same day. Eighteen hours after the last injection, the mice were sacrificed and bone marrow cells were obtained and processed as described above.

Assay [4] concerns bone marrow cells. Briefly: In vivo bone marrow CFU formation and cellularity, time course (kinetic experiments). Further details: species or system C57BL/6 mice. The note with it: 10 μg twice daily i.p.
From the text: as §1

In the case of `CCCCCCCC(=O)O[C@@H]1CN2CCC[C@@H](O)[C@@H]2[C@@H]1O` [Compound 6, 1S-8a-β-2-alpha-octanoyloxyoctahydroindolizine-1-alpha-8-β-diol], the values for the IC50 in assay [1] and in assay [2] were 0.066 µg/mL (≈ 0.22 µM) and 117 µM, respectively. For the same compound, the “Mean of CFU Formation” value in the assay with bone marrow cells [3] (5 μg twice daily i.p.) was determined as 200 CFU; in the assay with bone marrow cells [3] (10 μg twice daily i.p.) it was 437 CFU; with bone marrow cells [3] (20 μg twice daily i.p.), 295 CFU; in the assay with bone marrow cells [4] (1 day), 250 CFU; in the assay on bone marrow cells [4] (2 days), 432 CFU; in the assay on bone marrow cells [4] (3 days), 550 CFU. The “Mean of CFU Formation” value in the assay with bone marrow cells [4] (4 days) was 618 CFU; in the assay with bone marrow cells [4] (5 days) it was 614 CFU; in the assay with bone marrow cells [4] (6 days), 488 CFU. For the same compound, the “Mean of Cellularity” value in the assay on bone marrow cells [3] (5 μg twice daily i.p.) is 2.57 × 10^7; in the assay on bone marrow cells [3] (10 μg twice daily i.p.), 3.83 × 10^7; in the assay on bone marrow cells [3] (20 μg twice daily i.p.), 2.73 × 10^7; in the assay with bone marrow cells [4] (1 day), 3.56 × 10^7; with bone marrow cells [4] (2 days), 4.63 × 10^7; in the assay with bone marrow cells [4] (3 days), 5.88 × 10^7. Besides, the “Mean of Cellularity” value is recorded as 7.63 × 10^7 in the assay with bone marrow cells [4] (4 days), 6.25 × 10^7 in the assay with bone marrow cells [4] (5 days) and 5.38 × 10^7 in the assay on bone marrow cells [4] (6 days). Further, the “Effect on bone marrow cellularity and CFU formation (summary)” value in the assay with bone marrow cells [3] (summary of experiments) is “Stimulates CFU and cellularity”. The “Effect on bone marrow cellularity and CFU formation compared with swainsonine (summary)” value with bone marrow cells [3] (summary of experiments, for 3 and 23 versus 10 μg swainsonine) is on record as “not approximating swainsonine”.
